Source: patent US8673938B2, “Chemical compounds” (priority 2006, dated 2014)

Target: human 11βHSD1 enzyme (Homo sapiens (Human), UniProt P28845)
Test: biochemical
Conditions: read-out: % inhibition of human 11-βHSD

Sequence of human 11βHSD1 enzyme (P28845 whole entry): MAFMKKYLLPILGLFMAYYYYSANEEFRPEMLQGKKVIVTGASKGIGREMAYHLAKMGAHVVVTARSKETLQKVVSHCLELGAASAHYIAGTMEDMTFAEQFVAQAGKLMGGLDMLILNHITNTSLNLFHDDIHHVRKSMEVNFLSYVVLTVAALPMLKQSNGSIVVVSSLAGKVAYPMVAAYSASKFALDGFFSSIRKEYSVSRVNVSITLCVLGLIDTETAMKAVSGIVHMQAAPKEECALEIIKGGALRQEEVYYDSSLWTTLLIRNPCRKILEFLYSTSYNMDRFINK

Row | SMILES | inhibition at 30 µM [%]
1 | CCCOc1nc(N2CCCC(C(C)(C)C(=O)O)C2)ccc1C(=O)N[C@H]1C2CC3CC1C[C@](O)(C3)C2 (stereo partly drawn) [Example 110, 2-[1-[5-[((2r,5s)-5-hydroxy-2-adamantyl)carbamoyl]-6-propoxy-pyridin-2-yl]-3-piperidyl]-2-methyl-propanoic acid] | 95
2 | CCCSc1nc(N2CCC(C(=O)O)CC2)ccc1C(=O)N[C@H]1C2CC3CC1C[C@@](O)(C3)C2 [Example 84, 1-[5-[[(2r,5s)-5-hydroxy-2-adamantyl]carbamoyl]-6-propylsulfanyl-pyridin-2-yl]piperidine-4-carboxylic acid] | 101
3 | CCCSc1nc(N2CCC(C(=O)O)C(C)C2)ccc1C(=O)NC1CCCCC1 (stereo not drawn) [Example 36] | 89
4 | O=C(O)C[C@@H]1CCCN(c2ccc(C(=O)NC3CCCCC3)c(SC3CCCC3)n2)C1 [Example 52, 2-[(3S)-1-[5-(cyclohexylcarbamoyl)-6-cyclopentylsulfanyl-pyridin-2-yl]-3-piperidyl]acetic acid] | 92
5 | CCCSc1nc(N2CCC[C@@H](CC(=O)O)C2)ccc1C(=O)N[C@H]1C2CC3CC1C[C@@](O)(C3)C2 [Example 83] | 87
6 | O=C(O)C[C@H]1CCCN(c2ccc(C(=O)NC3CCCCC3)c(SC3CCCCC3)n2)C1 [Example 58, 2-[(3R)-1-[5-(cyclohexylcarbamoyl)-6-cyclohexylsulfanyl-pyridin-2-yl]-3-piperidyl]acetic acid] | 83
7 | CCCSc1nc(N2CCC[C@@H](CC(=O)O)C2)ccc1C(=O)N(C(C)C)C1CCCCC1 [Example 124, 2-[(3S)-1-[5-(cyclohexyl-propan-2-yl-carbamoyl)-6-propylsulfanyl-pyridin-2-yl]-3-piperidyl]acetic acid] | 92
8 | CCCSc1nc(N2CCC[C@@H](CC(=O)O)C2)ccc1C(=O)N(CC1CC1)C1CCCCC1 [Example 122, 2-[(3S)-1-[5-(cyclohexyl-(cyclopropylmethyl)carbamoyl)-6-propylsulfanyl-pyridin-2-yl]-3-piperidyl]acetic acid] | 88
9 | CCCSc1nc(N2CCC[C@@H](CC(=O)O)C2)ccc1C(=O)N(C)[C@H]1C2CC3CC1C[C@](OC)(C3)C2 [Example 170, [(3S)-1-[5-[((2r,5s)-5-Methoxyadamantan-2-yl)(methyl)carbamoyl]-6-(propylthio)pyridin-2-yl]piperidin-3-yl]acetic acid] | 92
10 | CCCNc1nc(N2CCC[C@@H](CC(=O)O)C2)ccc1C(=O)N(C)C1CCCCC1 [compound 157, 2-[(3S)-1-[5-(cyclohexyl-methyl-carbamoyl)-6-propylamino-pyridin-2-yl]-3-piperidyl]acetic acid] | 91
11 | O=C(N[C@H]1C2CC3CC1C[C@](O)(C3)C2)c1ccc(N2CC[C@@H](C(=O)O)C2)nc1SC1CCCC1 [Example 96, (3R)-1-[6-cyclopentylsulfanyl-5-[((2r,5s)-5-hydroxy-2-adamantyl)carbamoyl]pyridin-2-yl]pyrrolidine-3-carboxylic acid] | 88
12 | CCCSc1nc(Oc2ccc(C(C)C(=O)O)cc2)ccc1C(=O)NC1CCCCC1 (stereo not drawn) [Example 21, 2-[4-[5-(cyclohexylcarbamoyl)-6-propylsulfanyl-pyridin-2-yl]oxyphenyl]propanoic acid] | 88
13 | CCCSc1nc(N2CCC[C@H](CC(=O)O)C2)ccc1C(=O)N[C@H]1C2CC3CC1C[C@@](O)(C3)C2 [Example 85, 2-[(3R)-1-[5-[[(2r,5s)-5-hydroxy-2-adamantyl]carbamoyl)-6-propylsulfanyl-pyridin-2-yl]-3-piperidyl]acetic acid] | 89
14 | CC(C)CCSc1nc(N2CC[C@@H](C(=O)O)C2)ccc1C(=O)N[C@H]1C2CC3CC1C[C@@](O)(C3)C2 [Example 105] | 92
15 | O=C(O)C[C@@H]1CCCN(c2ccc(C(=O)N3CCC(c4cccnc4)C3)c(SC3CCCC3)n2)C1 (stereo partly drawn) [Example 127, 2-[(3S)-1-[6-cyclopentylsulfanyl-5-(3-pyridin-3-ylpyrrolidine-1-carbonyl)pyridin-2-yl]-3-piperidyl]acetic acid] | 96
16 | CCCSc1nc(N2CCC[C@@H](CC(=O)O)C2)ccc1C(=O)N[C@H]1CC[C@H](O)CC1 [Example 125, 2-[(3S)-1-[5-[(4-hydroxycyclohexyl)carbamoyl]-6-propylsulfanyl-pyridin-2-yl]-3-piperidyl]acetic acid] | 102
17 | O=C(O)C[C@H]1CCN(c2ccc(C(=O)NC3CCCCC3)c(SC3CCCCC3)n2)C1 [Example 57, 2-[(3R)-1-[5-(cyclohexylcarbamoyl)-6-cyclohexylsulfanyl-pyridin-2-yl]pyrrolidin-3-yl]acetic acid] | 97
18 | CCCSc1nc(Sc2ccc(C(=O)O)cc2)ccc1C(=O)NC1CCCCC1 [Example 15, 4-[5-(cyclohexylcarbamoyl)-6-propylsulfanyl-pyridin-2-yl]sulfanylbenzoic acid] | 73

Row | SMILES | inhibition at 30 µM [%]
19 | O=C(N[C@H]1C2CC3CC1C[C@](O)(C3)C2)c1ccc(N2CCC[C@H]2C(=O)O)nc1SC1CCCCC1 [Example 101, (2S)-1-[6-cyclohexylsulfanyl-5-[((2r,5s)-5-hydroxy-2-adamantyl)carbamoyl]pyridin-2-yl]pyrrolidine-2-carboxylic acid] | 100
20 | CCCSc1nc(N2CCCC(OCC(=O)O)C2)ccc1C(=O)NC1CCCCC1 (stereo not drawn) [Example 46] | 83
21 | CCCSc1nc(N2CCCC(C)(C(=O)O)C2)ccc1C(=O)NC1CCCCC1 (stereo not drawn) [Example 47, 1-[5-(cyclohexylcarbamoyl)-6-propylsulfanyl-pyridin-2-yl]-3-methyl-piperidine-3-carboxylic acid] | 90
22 | CCCSc1nc(N2CC[C@H](C(=O)O)C2)ccc1C(=O)NC1C2CC3CC(C2)CC1C3 (stereo partly drawn) [Example 67, (3S)-1-[5-(2-adamantylcarbamoyl)-6-propylsulfanyl-pyridin-2-yl]pyrrolidine-3-carboxylic acid] | 88
23 | CCCSc1nc(N2CC[C@H](CC(=O)O)C2)ccc1C(=O)N[C@H]1C2CC3CC1C[C@](OC(F)F)(C3)C2 [Example 184, 2-[(3R)-1-[5-[[(2r,5s)-5-(difluoromethoxy)-2-adamantyl]carbamoyl]-6-propylsulfanyl-pyridin-2-yl]pyrrolidin-3-yl]acetic acid] | 94
24 | CC(=O)N1CCN(c2nc(N3CCC[C@@H](CC(=O)O)C3)ccc2C(=O)NC2CCCCC2)CC1 [compound 147, 2-[(3S)-1-[6-(4-acetylpiperazin-1-yl)-5-(cyclohexylcarbamoyl)pyridin-2-yl]-3-piperidyl]acetic acid] | 86
25 | CCCSc1nc(N2CCCC(C3(C(=O)O)CCC3)C2)ccc1C(=O)NC1CCCCC1 (stereo not drawn) [Example 41, 1-[1-[5-(cyclohexylcarbamoyl)-6-propylsulfanyl-pyridin-2-yl]-3-piperidyl]cyclobutane-1-carboxylic acid] | 82
26 | O=C(O)C[C@@H]1CCCN(c2ccc(C(=O)NC3CCCCC3)c(SCCc3ccccc3)n2)C1 [Example 130, 2-[(3S)-1-[5-(cyclohexylcarbamoyl)-6-phenethylsulfanyl-pyridin-2-yl]-3-piperidyl]acetic acid] | 91
27 | O=C(O)C[C@@H]1CCN(c2ccc(C(=O)N[C@H]3C4CC5CC3C[C@](OC(F)F)(C5)C4)c(SC3CCCCC3)n2)C1 [Example 175, 2-[(3S)-1-[6-Cyclohexylsulfanyl-5-[[(2r,5s)-5-(difluoromethoxy)-2-adamantyl]carbamoyl]pyridin-2-yl]pyrrolidin-3-yl]acetic acid] | 91
28 | CCCSc1nc(Sc2ccc(CC(=O)O)cc2)ccc1C(=O)NC1CCCCC1 [Example 22, 2-[4-[5-(cyclohexylcarbamoyl)-6-propylsulfanyl-pyridin-2-yl]sulfanylphenyl]acetic acid] | 65
29 | O=C(O)C[C@@H]1CCCN(c2ccc(C(=O)NC3CCCCC3)c(N3CCN(c4ccccc4)CC3)n2)C1 [compound 145, 2-[(3S)-1-[5-(cyclohexylcarbamoyl)-6-(4-phenylpiperazin-1-yl)pyridin-2-yl]-3-piperidyl]acetic acid] | 84
30 | O=C(O)CO[C@H]1CCN(c2ccc(C(=O)NC3C4CC5CC(C4)CC3C5)c(SC3CCCCC3)n2)C1 (stereo partly drawn) [Example 71, 2-[(3S)-l-[5-(2-adamantylcarbamoyl)-6-cyclohexylsulfanyl-pyridin-2-yl]pyrrolidin-3-yl]oxyacetic acid] | 92
31 | CCCSc1nc(N[C@H]2C3CC4CC2C[C@](C(=O)O)(C4)C3)ccc1C(=O)NC1CCCCC1 [Example 9, (3R,5S)-4-[[5-(cyclohexylcarbamoyl)-6-propylsulfanyl-pyridin-2-yl]amino]adamantane-1-carboxylic acid] | 92
32 | O=C(O)C[C@@H]1CCCN(c2ccc(C(=O)NC3CCCCC3)c(N3CCN(S(=O)(=O)c4ccccc4)CC3)n2)C1 [compound 149, 2-[(3S)-1-[6-[4-(benzenesulfonyl)piperazin-1-yl]-5-(cyclohexyl-carbamoyl)pyridin-2-yl]-3-piperidyl]acetic acid] | 83
33 | CCCSc1nc(N2CC[C@@H](C(=O)O)C2)ccc1C(=O)NC1C2CC3CC(C2)CC1C3 (stereo partly drawn) [Example 63, (3R)-1-[5-(2-adamantylcarbamoyl)-6-propylsulfanyl-pyridin-2-yl]pyrrolidine-3-carboxylic acid] | 91
34 | CCCSc1nc(N2CCC[C@@H](CC(=O)O)C2)ccc1C(=O)N1CCC(c2cccnc2)C1 (stereo partly drawn) [Example 113, 2-[(3S)-1-[6-propylsulfanyl-5-(3-pyridin-3-ylpyrrolidine-1-carbonyl)pyridin-2-yl]-3-piperidyl]acetic acid] | 90
35 | CCCSc1nc(Oc2ccc(OCC(=O)O)cc2)ccc1C(=O)NC1CCCCC1 [Example 20, 2-[4-[5-(cyclohexylcarbamoyl)-6-propylsulfanyl-pyridin-2-yl]oxyphenoxy]acetic acid] | 89
36 | O=C(O)C[C@@H]1CCCN(c2ccc(C(=O)NC3CCCCC3)c(OCCCc3ccccc3)n2)C1 [compound 137, 2-[(3S)-1-[5-(cyclohexyl-carbamoyl)-6-(3-phenylpropoxy)pyridin-2-yl]-3-piperidyl] acetic acid] | 99
